Reference: paper PMC7476565 (Antiviral Research, 2020)

Legend:
[1] = system: CRFK cells; assay: In vitro cytotoxicity MTS assay on CRFK cells; format: cell-based, feline; conditions: read-out: 50% cytotoxic concentration CC50, MTS assay
[2] = target: FIPV 3CL^pro (Feline coronavirus, UniProt Q98VG9); assay: FRET protease inhibition assay, FIPV 3CLpro; format: biochemical, feline infectious peritonitis virus (FIPV) strain 79-1146
[3] = system: FIPV; assay: microbe, parasite or virus in culture; format: cell-based, feline infectious peritonitis virus (FIPV) strain 79-1146; conditions: for EC50: Alphacoronavirus 1, CRFK, 2 h, read-out: Prophylaxis treatment EC50, IPMA; for inhibition of the cytopathic effect (in words): FIPV in CRFK cells, all examined conditions
[4] = system: FIPV; assay: FIPV RNA quantification by RT-qPCR in CRFK cells; format: cell-based, feline infectious peritonitis virus (FIPV) strain 79-1146; conditions: with higher concentration
[5] = In vitro cytotoxicity MTS assay on CRFK cells; format: cell-based, feline; conditions: cat, 50% cytotoxic concentration CC50, MTS assay
[6] = system: FIPV; conditions: CRFK cells; CPE still observed; ref Weiss and Oostrom-Ram, 1989; cited from earlier work
[7] = system: TGEV; assay: Antiviral activity against TGEV replication in SK6 cells

Chain of FIPV 3CL^pro (Q98VG9 2904-3205 limits assumed): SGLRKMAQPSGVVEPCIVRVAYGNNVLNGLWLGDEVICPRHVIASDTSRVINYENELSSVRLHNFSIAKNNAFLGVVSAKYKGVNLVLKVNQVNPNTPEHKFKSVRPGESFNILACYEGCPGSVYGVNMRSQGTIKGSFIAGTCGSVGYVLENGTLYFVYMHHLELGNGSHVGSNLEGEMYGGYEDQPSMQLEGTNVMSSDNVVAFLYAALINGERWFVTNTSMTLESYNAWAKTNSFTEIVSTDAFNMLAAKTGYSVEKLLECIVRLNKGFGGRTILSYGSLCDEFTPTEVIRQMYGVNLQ

| Compound | CC50 [1] | Ki [2] | EC50 [3] | inhibition of the cytopathic effect (in words) [3] | copy numbers of FIPV RNAs / FIPV replication (RT-qPCR) [4] | CC50 [5] | Inhibitory dose for FIPV [6] | antiviral effect in TGEV cell-based assay (in words) [7] |
| --- | --- | --- | --- | --- | --- | --- | --- | --- |
| CC(C)C[C@H](NC(=O)OCc1ccccc1)C(=O)N[C@@H](CC1CCNC1=O)C(O)S(=O)(=O)O (stereo partly drawn) [GC376, reference compound] | > 200 µM | – | – | – | – | – | – | – |
| N#CC1(C#N)C2C=CC(c3coc4cccc2c34)C1(C#N)C#N (stereo not drawn) [NSC629301, 3,6-dihydro-3,6-ethanocyclohepta (cd) (1) benzofuran-10,10,11,11-tetracarbonitrile] | 23.2 ± 5.19 µM | 9.39 ± 0.53 µM | 6.11 ± 1.9 µM | strongly inhibit | reduced replication | 28.1 ± 5.19 µM | – | – |
| NC(=O)c1ncn([C@@H]2O[C@H](CO)[C@@H](O)[C@H]2O)n1 [Ribavirin, reference compound] | – | – | > 200 µM | – | – | > 500 µM | 50 to 100 µg/mL | – |
| Cc1cccc(C)c1OCC(=O)N[C@@H](Cc1ccccc1)[C@@H](O)C[C@H](Cc1ccccc1)NC(=O)[C@H](C(C)C)N1CCCNC1=O [Lopinavir, reference compound] | – | – | 33.7 ± 1.53 µM | – | – | > 100 µM | – | – |
| O=C(C=Cc1ccc2ccccc2n1)c1cc(Cl)ccc1O [NSC71097, 1-(5-chloro-2-hydroxyphenyl)-3-(2-quinolinyl)-2-propen-1-one] | – | 15.2 ± 1.76 µM | 1.99 ± 0.3 µM | strongly inhibit | reduced replication | 68.5 ± 4.82 µM | – | – |
| O=C(Nc1ccc(F)cc1)Oc1ccc[nH]c1=O [NSC282187, Carbamic acid, (4-fluorophenyl)-, 1,2-dihydro-2-oxo-3-pyridinyl ester] | – | 2.04 ± 0.08 µM | > 200 µM | – | – | 510.7 ± 0.13 µM | – | did not show an active antiviral effect |
